Experiments:
[1] = test system: herpes simplex virus type 2 (HSV-2); details: previous studies, cited from earlier work
[2] = test system: motile sperm (normal semen sample); assay: modified Sander-Cramer Assay, spermicidal activity; format: cell-based; details: control; 30 seconds at room temperature
Description: This assay determines the sperm-immobilising minimum effective concentration (MEC).
Serial two-fold dilutions were prepared from stock solutions at 2% (for water soluble compounds) or 4% (for water insoluble compounds). 250 μL of each dilution were mixed with […] of a normal semen sample containing 60×10^6 motile sperm/mL. Normality of the semen samples was assessed with the aid of a CASA system (Hamilton-Thorne, IVOS; Beverly, Mass.). Semen and compound aliquots were microscopically examined while incubating at room temperature for 30 seconds. If any motile spermatozoon were found, either in the initial examination or after one hour incubation in medium, that dilution was labelled as “failed”. The MEC for a given compound was calculated using the highest dilution that induces total sperm immobilization. 6 to 10 semen samples were used to obtain more reliable results. N9 (MEC=˜0.1-0.2 mg/mL) and solvents were run as control.

## Nonoxynol-9 [N9]
[1]
  animals infected with HSV-2: 29 out of 42
[1]; effective ID of low-dose inoculum in test mice / ID in controls
  relative susceptibility to HSV-2 infection vs control animals: 29.7 times
[2]
  sperm-immobilising minimum effective concentration (MEC): 0.1 to 0.2 mg/mL

Reference: US8193248B2, “Contraceptive composition” (Starpharma Pty Limited, priority 2006, dated 2012)
